Test results taken from PMC5218480 (PLoS ONE, 2017).

Tested on: MV-4-11 cells
Test: Gene expression microarray analysis (Affymetrix PrimeView) and GSEA
Assay type: cell-based, human
Parameters: RFU PODN (11730768_x_at) / Fold change /veh PODN (11730768_x_at) / RFU LINC00158 (11744669_a_at) / Fold change /veh LINC00158 (11744669_a_at) / RFU DUSP10 (11751237_a_at) / Fold change /veh DUSP10 (11751237_a_at) / RFU ID3 (11757404_x_at) / Fold change /veh ID3 (11757404_x_at) / RFU PLEKHG5 (11737974_s_at) / Fold change /veh PLEKHG5 (11737974_s_at) / RFU LRRC4B (11730491_at) / Fold change /veh LRRC4B (11730491_at) / RFU GIMAP4 (11747438_a_at) / Fold change /veh GIMAP4 (11747438_a_at) / RFU KRT8 (11758183_x_at) / Fold change /veh KRT8 (11758183_x_at) / RFU CNN1 (11734310_a_at) / Fold change /veh CNN1 (11734310_a_at) / RFU VPS37D (11726825_at) / Fold change /veh VPS37D (11726825_at) / RFU C10orf10 (11716522_x_at) / Fold change /veh C10orf10 (11716522_x_at) / RFU KIR2DL2 /// KIR2DL4 /// KIR2DL5A /// KIR2DL5B /// KIR2DS1 /// KIR2DS2 /// KIR2DS3 /// KIR2DS4 /// KIR3DL3 /// KIR3DL3 /// KIR3DS1 (11738374_at) / Fold change /veh KIR2DL2 /// KIR2DL4 /// KIR2DL5A /// KIR2DL5B /// KIR2DS1 /// KIR2DS2 /// KIR2DS3 /// KIR2DS4 /// KIR3DL3 /// KIR3DL3 /// KIR3DS1 (11738374_at) / RFU C1QL1 (11718748_at) / Fold change /veh C1QL1 (11718748_at) / RFU TMPRSS4 (11747572_a_at) / Fold change /veh TMPRSS4 (11747572_a_at) / RFU HAMP (11756126_x_at) / Fold change /veh HAMP (11756126_x_at) / RFU RNFT2 (11725882_a_at) / Fold change /veh RNFT2 (11725882_a_at) / RFU NR4A2 (11747474_a_at) / Fold change /veh NR4A2 (11747474_a_at) / RFU ABCC12 (11746883_a_at) / Fold change /veh ABCC12 (11746883_a_at) / RFU TMEM136 (11760407_x_at) / Fold change /veh TMEM136 (11760407_x_at) / RFU CLDN22 /// WWC2 (11732394_at) / Fold change /veh CLDN22 /// WWC2 (11732394_at) / RFU HLA-DPB1 (11760878_x_at) / Fold change /veh HLA-DPB1 (11760878_x_at) / RFU SPINT1 (11716480_a_at) / Fold change /veh SPINT1 (11716480_a_at) / RFU GAP43 (11754022_s_at) / Fold change /veh GAP43 (11754022_s_at) / RFU A4GNT (11735810_at) / Fold change /veh A4GNT (11735810_at) / RFU PRB3 (11715151_x_at) / Fold change /veh PRB3 (11715151_x_at) / RFU TUBB4B (11761932_at) / Fold change /veh TUBB4B (11761932_at) / RFU CAPN14 (11732068_a_at) / Fold change /veh CAPN14 (11732068_a_at) / RFU TMCC2 (11721928_a_at) / Fold change /veh TMCC2 (11721928_a_at) / RFU IRGQ (11745062_a_at) / Fold change /veh IRGQ (11745062_a_at) / RFU FAM174B (11720279_a_at) / Fold change /veh FAM174B (11720279_a_at) / RFU TMPRSS4 (11748680_a_at) / Fold change /veh TMPRSS4 (11748680_a_at) / RFU FAM212B (11763350_a_at) / Fold change /veh FAM212B (11763350_a_at) / RFU PLEKHG5 (11743358_a_at) / Fold change /veh PLEKHG5 (11743358_a_at) / RFU ZSCAN30 (11745921_a_at) / Fold change /veh ZSCAN30 (11745921_a_at) / RFU CMKLR1 (11741424_a_at) / Fold change /veh CMKLR1 (11741424_a_at) / RFU LOC101060620 /// MAPK8IP1 (11723275_at) / Fold change /veh LOC101060620 /// MAPK8IP1 (11723275_at) / RFU SPTSSB (11747773_x_at) / Fold change /veh SPTSSB (11747773_x_at) / RFU PRSS12 (11739890_at) / Fold change /veh PRSS12 (11739890_at) / RFU BIN1 (11741810_x_at) / Fold change /veh BIN1 (11741810_x_at) / RFU WNT11 (11732464_a_at) / Fold change /veh WNT11 (11732464_a_at) / RFU C10orf10 (11716521_a_at) / Fold change /veh C10orf10 (11716521_a_at) / RFU C5orf56 (11738089_at) / Fold change /veh C5orf56 (11738089_at) / RFU CYB561 (11721691_x_at) / Fold change /veh CYB561 (11721691_x_at) / RFU ANKRD19P (11752326_a_at) / Fold change /veh ANKRD19P (11752326_a_at) / RFU OR2T12 /// OR2T33 /// OR2T8 (11738714_s_at) / Fold change /veh OR2T12 /// OR2T33 /// OR2T8 (11738714_s_at) / RFU VCAN (11748164_a_at) / Fold change /veh VCAN (11748164_a_at) / RFU JSRP1 (11732532_at) / Fold change /veh JSRP1 (11732532_at) / RFU KRTAP10-11 (11738290_x_at) / Fold change /veh KRTAP10-11 (11738290_x_at) / RFU MYO3A (11730013_a_at) / Fold change /veh MYO3A (11730013_a_at) / RFU EBF3 (11725865_a_at) / Fold change /veh EBF3 (11725865_a_at) / RFU CAMK2N1 (11719241_x_at) / Fold change /veh CAMK2N1 (11719241_x_at) / RFU C5orf56 (11738088_a_at) / Fold change /veh C5orf56 (11738088_a_at) / RFU OLFML3 (11715873_a_at) / Fold change /veh OLFML3 (11715873_a_at) / RFU LOC100653217 /// NTM (11731650_a_at) / Fold change /veh LOC100653217 /// NTM (11731650_a_at) / RFU MAPK11 (11762145_a_at) / Fold change /veh MAPK11 (11762145_a_at) / RFU FIZ1 (11724087_x_at) / Fold change /veh FIZ1 (11724087_x_at) / RFU OASL (11726364_x_at) / Fold change /veh OASL (11726364_x_at) / RFU SOX15 (11748057_x_at) / Fold change /veh SOX15 (11748057_x_at) / RFU CD79A (11719716_a_at) / Fold change /veh CD79A (11719716_a_at) / RFU HIST1H1D (11736915_at) / Fold change /veh HIST1H1D (11736915_at) / RFU CASKIN2 (11723855_a_at) / Fold change /veh CASKIN2 (11723855_a_at) / RFU LOC730098 (11760151_x_at) / Fold change /veh LOC730098 (11760151_x_at) / RFU OR4N2 (11742367_at) / Fold change /veh OR4N2 (11742367_at) / RFU PRRT2 (11749266_a_at) / Fold change /veh PRRT2 (11749266_a_at) / RFU SNX32 (11753110_a_at) / Fold change /veh SNX32 (11753110_a_at) / RFU CDHR5 (11726645_a_at) / Fold change /veh CDHR5 (11726645_a_at) / RFU RCAN1 (11760418_a_at) / Fold change /veh RCAN1 (11760418_a_at) / RFU FAM167A (11723789_a_at) / Fold change /veh FAM167A (11723789_a_at) / RFU FAM26E (11764081_at) / Fold change /veh FAM26E (11764081_at) / RFU ISYNA1 (11749810_s_at) / Fold change /veh ISYNA1 (11749810_s_at) / RFU ACY1 (11761880_at) / Fold change /veh ACY1 (11761880_at) / RFU 11764098_at / Fold change /veh 11764098_at / RFU SAMD14 (11745864_x_at) / Fold change /veh SAMD14 (11745864_x_at) / RFU NPB (11741838_a_at) / Fold change /veh NPB (11741838_a_at) / RFU TMPRSS6 (11731388_a_at) / Fold change /veh TMPRSS6 (11731388_a_at) / RFU KRTAP10-2 (11738614_at) / Fold change /veh KRTAP10-2 (11738614_at) / RFU ARHGAP8 /// PRR5-ARHGAP8 (11727945_x_at) / Fold change /veh ARHGAP8 /// PRR5-ARHGAP8 (11727945_x_at) / RFU KRTAP5-7 /// NADSYN1 (11734609_at) / Fold change /veh KRTAP5-7 /// NADSYN1 (11734609_at) / RFU RASL12 (11751679_a_at) / Fold change /veh RASL12 (11751679_a_at) / RFU CDKN2B (11736163_a_at) / Fold change /veh CDKN2B (11736163_a_at) / RFU PRF1 (11729649_at) / Fold change /veh PRF1 (11729649_at) / RFU, ZNF638 /// ZNF638-IT1 / Fold change vs veh, ZNF638 /// ZNF638-IT1 / RFU, PANK3 / Fold change vs veh, PANK3 / RFU, SH3YL1 / Fold change vs veh, SH3YL1 / RFU, ZEB2 / Fold change vs veh, ZEB2 / RFU, NRIP1 / Fold change vs veh, NRIP1 / RFU, PTTG1IP / Fold change vs veh, PTTG1IP / RFU, CAPN2 / Fold change vs veh, CAPN2 / RFU, MED14 / Fold change vs veh, MED14 / RFU, SNORA58 / Fold change vs veh, SNORA58 / RFU, C1orf63 / Fold change vs veh, C1orf63 / RFU, LRRFIP1 / Fold change vs veh, LRRFIP1 / RFU, NDUFAF7 / Fold change vs veh, NDUFAF7 / RFU, SLC12A2 / Fold change vs veh, SLC12A2 / RFU, IBTK / Fold change vs veh, IBTK / RFU, ESF1 / Fold change vs veh, ESF1 / Fold change vs veh, TMEM50B / RFU, TAOK1 / Fold change vs veh, TAOK1 / RFU, ACBD3 / Fold change vs veh, ACBD3 / RFU, TMA16 / Fold change vs veh, TMA16 / RFU, RWDD3 / Fold change vs veh, RWDD3 / RFU, BCAT1 / Fold change vs veh, BCAT1 / RFU, EDEM3 / Fold change vs veh, EDEM3 / RFU, TMEM33 / Fold change vs veh, TMEM33 / RFU, WDR75 / Fold change vs veh, WDR75 / RFU, AHCTF1 / Fold change vs veh, AHCTF1 / RFU, TFRC / Fold change vs veh, TFRC / RFU, ZDHHC17 / Fold change vs veh, ZDHHC17 / RFU, NOM1 / Fold change vs veh, NOM1 / RFU, ARL8B / Fold change vs veh, ARL8B / RFU, ZBTB11 / Fold change vs veh, ZBTB11 / RFU, TAMM41 / Fold change vs veh, TAMM41 / RFU, KIAA1704 /// LOC100996395 / Fold change vs veh, KIAA1704 /// LOC100996395 / RFU, ING1 / Fold change vs veh, ING1 / RFU, TRMT61B / Fold change vs veh, TRMT61B / RFU, FUBP3 / Fold change vs veh, FUBP3 / RFU, TP53 / Fold change vs veh, TP53 / RFU, TNKS2 / Fold change vs veh, TNKS2 / RFU, ZFP14 / Fold change vs veh, ZFP14 / RFU, ACTR2 / Fold change vs veh, ACTR2 / RFU, PPP3R1 / Fold change vs veh, PPP3R1 / RFU, PIK3R1 / Fold change vs veh, PIK3R1 / RFU, HNRNPA1 / Fold change vs veh, HNRNPA1 / RFU, RNF170 / Fold change vs veh, RNF170 / RFU, ZNF28 / Fold change vs veh, ZNF28 / RFU, RNGTT / Fold change vs veh, RNGTT / RFU, OGT / Fold change vs veh, OGT / RFU, BRD1 / Fold change vs veh, BRD1 / RFU, MARS / Fold change vs veh, MARS / RFU, ZNF655 / Fold change vs veh, ZNF655 / RFU, FAHD1 / Fold change vs veh, FAHD1 / RFU, BDP1 / Fold change vs veh, BDP1 / RFU, LRRCC1 / Fold change vs veh, LRRCC1 / RFU, ARID1A / Fold change vs veh, ARID1A / RFU, ZNF146 / Fold change vs veh, ZNF146 / RFU, ZNF330 / Fold change vs veh, ZNF330 / RFU, GPN3 / Fold change vs veh, GPN3 / RFU, C9orf123 / Fold change vs veh, C9orf123 / RFU, N4BP2L2 / Fold change vs veh, N4BP2L2 / RFU, ARFIP1 / Fold change vs veh, ARFIP1 / RFU, FAM179B / Fold change vs veh, FAM179B / RFU, BCL10 / Fold change vs veh, BCL10 / RFU, UHRF1BP1L / Fold change vs veh, UHRF1BP1L / RFU, BET1 / Fold change vs veh, BET1 / RFU, CNOT2 / Fold change vs veh, CNOT2 / RFU, ZNF268 / Fold change vs veh, ZNF268 / Fold change vs veh, ZNF507 / RFU, DGCR2 / Fold change vs veh, DGCR2 / RFU, WDSUB1 / Fold change vs veh, WDSUB1 / Fold change vs veh, HSP90B1 /// MIR3652 / RFU, ADSS / Fold change vs veh, ADSS / RFU, GK / Fold change vs veh, GK / RFU, ZNF148 / Fold change vs veh, ZNF148 / RFU, TAF9 / Fold change vs veh, TAF9 / RFU, SLC1A5 / Fold change vs veh, SLC1A5 / RFU, SLMO2 / Fold change vs veh, SLMO2 / RFU, ABCC4 / Fold change vs veh, ABCC4 / RFU, LOC101060439 /// RAP1B / Fold change vs veh, LOC101060439 /// RAP1B / RFU, RFX7 / Fold change vs veh, RFX7 / RFU, GTPBP10 / Fold change vs veh, GTPBP10 / RFU, CNEP1R1 / Fold change vs veh, CNEP1R1 / RFU, BIVM-ERCC5 /// ERCC5 / Fold change vs veh, BIVM-ERCC5 /// ERCC5 / RFU, ILF3 / Fold change vs veh, ILF3 / RFU 11762660_at / Fold change /veh 11762660_at / RFU VCAN (11757783_s_at) / Fold change /veh VCAN (11757783_s_at) / RFU DDX43 (11728927_at) / Fold change /veh DDX43 (11728927_at) / RFU KRT8 (11758188_x_at) / Fold change /veh KRT8 (11758188_x_at) / RFU NKD1 (11759106_at) / Fold change /veh NKD1 (11759106_at) / RFU SRD5A1 (11742802_a_at) / Fold change /veh SRD5A1 (11742802_a_at) / RFU TPSAB1 /// TPSB2 (11721975_s_at) / Fold change /veh TPSAB1 /// TPSB2 (11721975_s_at) / RFU GSTM3 (11746129_a_at) / Fold change /veh GSTM3 (11746129_a_at) / RFU IL23R (11737362_x_at) / Fold change /veh IL23R (11737362_x_at) / RFU TMEM51 (11727254_a_at) / Fold change /veh TMEM51 (11727254_a_at) / RFU PIWIL2 (11732686_x_at) / Fold change /veh PIWIL2 (11732686_x_at) / RFU ORM1 (11744905_x_at) / Fold change /veh ORM1 (11744905_x_at) / RFU CCDC152 (11743942_at) / Fold change /veh CCDC152 (11743942_at) / RFU ECM1 (11717891_a_at) / Fold change /veh ECM1 (11717891_a_at) / RFU IL23R (11748794_a_at) / Fold change /veh IL23R (11748794_a_at) / RFU TNFAIP8L3 (11732012_x_at) / Fold change /veh TNFAIP8L3 (11732012_x_at) / RFU MBOAT4 (11741988_at) / Fold change /veh MBOAT4 (11741988_at) / RFU 11764193_at / Fold change /veh 11764193_at / RFU TMEM53 (11763286_at) / Fold change /veh TMEM53 (11763286_at) / RFU MAGEB2 (11727129_at) / Fold change /veh MAGEB2 (11727129_at) / RFU TMEM200A (11744735_a_at) / Fold change /veh TMEM200A (11744735_a_at) / RFU CCDC152 (11751479_a_at) / Fold change /veh CCDC152 (11751479_a_at) / RFU FAM211A (11726209_a_at) / Fold change /veh FAM211A (11726209_a_at) / RFU RGS16 (11746705_a_at) / Fold change /veh RGS16 (11746705_a_at) / RFU VCAN (11755009_s_at) / Fold change /veh VCAN (11755009_s_at) / RFU RHOB (11743442_s_at) / Fold change /veh RHOB (11743442_s_at) / RFU RGS16 (11720943_a_at) / Fold change /veh RGS16 (11720943_a_at) / RFU RGS16 (11720944_at) / Fold change /veh RGS16 (11720944_at) / RFU, VPS4B / Fold change vs veh, VPS4B / RFU, CREB1 / Fold change vs veh, CREB1 / RFU, DNAJC13 / Fold change vs veh, DNAJC13 / RFU, GNAQ / Fold change vs veh, GNAQ / RFU, CDK5R1 / Fold change vs veh, CDK5R1 / RFU, ZRANB3 / Fold change vs veh, ZRANB3 / RFU, CUL4A / Fold change vs veh, CUL4A / RFU, CCNY / Fold change vs veh, CCNY / RFU, UFL1 / Fold change vs veh, UFL1 / RFU, COG3 / Fold change vs veh, COG3 / RFU, DIAPH2 / Fold change vs veh, DIAPH2 / RFU, SKA2 / Fold change vs veh, SKA2 / RFU, AFF3 / Fold change vs veh, AFF3 / RFU, LMF1 / Fold change vs veh, LMF1 / RFU, IPO11 / Fold change vs veh, IPO11 / RFU, DFFB / Fold change vs veh, DFFB / RFU, FOXP1 / Fold change vs veh, FOXP1 / RFU, CARD8 / Fold change vs veh, CARD8 / RFU, STRN3 / Fold change vs veh, STRN3 / RFU, ADK / Fold change vs veh, ADK / RFU, RASSF2 / Fold change vs veh, RASSF2 / RFU, WIPF1 / Fold change vs veh, WIPF1 / RFU, LARP1B / Fold change vs veh, LARP1B / RFU, RASA1 / Fold change vs veh, RASA1 / RFU, RB1 / Fold change vs veh, RB1 / RFU, PPFIA1 / Fold change vs veh, PPFIA1 / RFU, MAT2A / Fold change vs veh, MAT2A / RFU, CCT5 / Fold change vs veh, CCT5 / RFU, WDR92 / Fold change vs veh, WDR92 / RFU, CUX1 / Fold change vs veh, CUX1 / RFU, TTC7A / Fold change vs veh, TTC7A / RFU, TMEM135 / Fold change vs veh, TMEM135 / RFU, DEPTOR / Fold change vs veh, DEPTOR / RFU, CPM / Fold change vs veh, CPM / RFU, DNAJB6 / Fold change vs veh, DNAJB6 / RFU, CACNA2D3 / Fold change vs veh, CACNA2D3 / RFU, DTX4 / Fold change vs veh, DTX4 / RFU, TFCP2 / Fold change vs veh, TFCP2 / RFU, GMCL1 /// GMCL1P1 / Fold change vs veh, GMCL1 /// GMCL1P1 / RFU, AEBP2 / Fold change vs veh, AEBP2 / RFU, SNHG1 /// SNORD22 /// SNORD25 /// SNORD26 /// SNORD27 /// SNORD28 /// SNORD29 /// SNORD31 / Fold change vs veh, SNHG1 /// SNORD22 /// SNORD25 /// SNORD26 /// SNORD27 /// SNORD28 /// SNORD29 /// SNORD31 / Fold change (Aza/veh), C12orf56 (ProbeSet 11735607_a_at) / Fold change (ACY-1035/veh), C12orf56 (ProbeSet 11735607_a_at) / Fold change (Aza/veh), FGFR1OP (ProbeSet 11751329_s_at) / Fold change (ACY-1035/veh), FGFR1OP (ProbeSet 11751329_s_at) / Fold change (Aza/veh), VPS36 (ProbeSet 11739960_a_at) / Fold change (ACY-1035/veh), VPS36 (ProbeSet 11739960_a_at) / RFU SYPL1 (11715823_x_at) / Fold change /veh SYPL1 (11715823_x_at) / RFU IGFBP7 (11715501_s_at) / Fold change /veh IGFBP7 (11715501_s_at) / RFU REEP3 (11722064_at) / Fold change /veh REEP3 (11722064_at) / RFU IGLL1 (11728026_x_at) / Fold change /veh IGLL1 (11728026_x_at): dose or concentration left out as unconfirmed
Settings: ProbeSet 11745789_a_at; LIST D

Nc1ncn([C@@H]2O[C@H](CO)[C@@H](O)[C@H]2O)c(=O)n1 [azacitidine]
RFU, TMEM135: 108.05 RFU
